The values below come from patent US9856279B2 (AGIOS PHARMACEUTICALS, INC, priority 2011, dated 2018).

Some results are limits rather than exact numbers.

Chain of IDH1 R132H (O75874 whole entry R132H): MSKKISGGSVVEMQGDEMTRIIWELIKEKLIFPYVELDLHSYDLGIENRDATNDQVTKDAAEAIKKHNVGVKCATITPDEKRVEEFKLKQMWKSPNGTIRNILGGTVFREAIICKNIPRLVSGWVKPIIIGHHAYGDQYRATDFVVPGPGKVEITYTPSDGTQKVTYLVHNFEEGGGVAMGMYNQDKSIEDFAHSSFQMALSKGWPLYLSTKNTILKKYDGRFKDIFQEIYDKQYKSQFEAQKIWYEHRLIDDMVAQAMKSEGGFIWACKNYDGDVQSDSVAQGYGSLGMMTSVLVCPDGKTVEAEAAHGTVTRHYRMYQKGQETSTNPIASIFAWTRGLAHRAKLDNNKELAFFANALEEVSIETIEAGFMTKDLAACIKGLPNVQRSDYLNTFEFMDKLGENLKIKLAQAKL

The target of the first experiment is IDH1 R132H (Homo sapiens, UniProt O75874, R132H). The experiment can be described thus: Assay for IDH1 R132H inhibitors (NADPH/aKG, resazurin detection). The format is biochemical. Particulars: Table 3; enzyme assay, 50 minutes at room temperature; read-out: IC50 (IDH1 R132H Inhibition). In a few lines:
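Compound added to substrate mix (8 uM NADPH, 2 mM aKG), then enzyme mix (0.2 μg/ml IDH1 R132H); 50 min RT in 20 mM Tris pH 7.5, 150 mM NaCl, 10 mM MgCl2, 0.03% BSA. Resazurin detection mix (30 μM) 5 min RT; resorufin fluorescence Ex544/Em590.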
On the technique in general: Alamar Blue is a resazurin reagent that responds to reducing activity.
`COCCC(=O)N1CCN(c2nc(C3CC3)c(-c3cccc(OC)c3)c(C)c2C#N)C[C@H]1C` [Compound 251, (R)-6-cyclopropyl-5-(3-methoxyphenyl)-2-(4-(3-methoxypropanoyl)-3-methylpiperazin-1-yl)-4-methylnicotinonitrile]: the half-inhibitory concentration (IC50) (in general, the concentration that gives 50% inhibition) was at most 1000 nM.

Take `COCCC(=O)N1CCN(c2nc(C3CC3)c(-c3ccc(OC(F)(F)F)cc3)c(C)c2C#N)C[C@H]1C` [Compound 255, (R)-6-cyclopropyl-2-(4-(3-methoxypropanoyl)-3-methylpiperazin-1-yl)-4-methyl-5-(4-(trifluoromethoxy)-phenyl)nicotinonitrile]: the IC50 is at most 1000 nM.

On to `CC(C)c1cc(-c2cccc(F)c2)c(C#N)c(N2CCN(C(=O)c3ccco3)CC2)n1` [Compound 114, 4-(3-fluorophenyl)-2-(4-(furan-2-carbonyl)piperazin-1-yl)-6-isopropylnicotinonitrile], for which the IC50 was in the range of 1000 to 5000 nM.

For `N#Cc1cc(-c2ccccc2)c(-c2ccccc2)nc1N1CCN(C(=O)c2ccoc2)CC1` [Compound 122, 2-(4-(furan-3-carbonyl)piperazin-1-yl)-5,6-diphenylnicotinonitrile], the IC50 was 5000 to 15000 nM.

Take `CC(C)c1cc(-c2ccccc2)nc(N2CCN(C(=O)c3ccco3)C(C)C2)c1C#N` (centres unmarked) [Compound 108, 2-(4-(furan-2-carbonyl)-3-methylpiperazin-1-yl)-4-isopropyl-6-phenylnicotinonitrile]: the IC50 was in the range of 5000 to 15000 nM.

As to `COc1ccccc1-c1cc(C(C)C)nc(N2CCN(C(=O)Cc3ccccc3)C(C)C2)c1C#N` (centres unmarked) [Compound 149], the IC50 lay within 1000 to 5000 nM.

For the molecule `Cc1ccccc1-c1cc(C(C)C)nc(N2CCN(C(=O)c3ccoc3)[C@H](C)C2)c1C#N` [Compound 158], the IC50 lay within 1000 to 5000 nM.

With `Cc1occc1C(=O)N1CCN(c2nc(C(C)C)c(-c3ccccc3)cc2C#N)C[C@H]1C` [Compound 164, (R)-6-isopropyl-2-(3-methyl-4-(2-methylfuran-3-carbonyl)piperazin-1-yl)-5-phenylnicotinonitrile], the IC50 lay in the range of 1000 to 5000 nM.

Regarding `Cc1cccc(-c2cc(C#N)c(N3CCN(C(=O)Cc4cccs4)[C@H](C)C3)nc2C(C)C)c1` [Compound 192, (R)-6-isopropyl-2-(3-methyl-4-(2-(thiophen-2-yl)acetyl)piperazin-1-yl)-5-m-tolylnicotinonitrile], the IC50 lay within 1000 to 5000 nM.

For the molecule `COCCC(=O)N1CCN(c2nc(C3CC3)c(-c3cccc(OC(F)(F)F)c3)cc2C#N)C[C@H]1C` [Compound 228, (R)-6-cyclopropyl-2-(4-(3-methoxypropanoyl)-3-methylpiperazin-1-yl)-5-(3-(trifluoromethoxy)phenyl)-nicotinonitrile], the IC50 is 1000 to 5000 nM.

In the case of `CC(C)c1cc(-c2ccccc2)c(C#N)c(N2CCN(C(=O)c3ccccc3)CC2)n1` [Compound 100, 2-(4-benzoylpiperazin-1-yl)-6-isopropyl-4-phenylnicotinonitrile], the IC50 was in the range of 5000 to 15000 nM.

For the molecule `Cc1occc1C(=O)N1CCN(c2nc(C(C)C)c(-c3ccc(F)cc3)cc2C#N)C[C@H]1C` [Compound 199, (R)-5-(4-fluorophenyl)-6-isopropyl-2-(3-methyl-4-(2-methylfuran-3-carbonyl)piperazin-1-yl)nicotinonitrile], the 50% inhibitory concentration (IC50) lay within 1000 to 5000 nM.

Take `COCCC(=O)N1CCN(c2nc(C3CC3)c(-c3cccc(F)c3)c(C)c2C#N)C[C@H]1C` [Compound 257, (R)-6-cyclopropyl-5-(3-fluorophenyl)-2-(4-(3-methoxypropanoyl)-3-methylpiperazin-1-yl)-4-methylnicotinonitrile]: the IC50 was at most 1000 nM.

On to `CC[C@@H]1CN(c2nc(C(C)C)c(-c3ccccc3)cc2C#N)CCN1C(=O)c1ccco1` [Compound 172, (R)-2-(3-ethyl-4-(furan-2-carbonyl)piperazin-1-yl)-6-isopropyl-5-phenylnicotinonitrile], for which the IC50 lay within 5000 to 15000 nM.

For the molecule `CC(C)c1nc(N2CCN(C(=O)c3ccoc3)[C@H](C(C)C)C2)c(C#N)cc1-c1ccccc1` [Compound 170, (R)-2-(4-(furan-3-carbonyl)-3-isopropylpiperazin-1-yl)-6-isopropyl-5-phenylnicotinonitrile], the IC50 lay in the range of 1000 to 5000 nM.

For `CC(C)c1cc(-c2cccc(F)c2)c(C#N)c(N2CCN(C(=O)c3ccco3)C(C)C2)n1` (centres unmarked) [Compound 127, 4-(3-fluorophenyl)-2-(4-(furan-2-carbonyl)-3-methylpiperazin-1-yl)-6-isopropylnicotinonitrile], the half-inhibitory concentration (IC50) lay in the range of 5000 to 15000 nM.

For the molecule `COc1ccccc1-c1cc(C(C)C)nc(N2CCN(C(=O)c3c[nH]c4ccccc34)CC2)c1C#N` [Compound 106], the concentration for half-maximal inhibition (IC50) was in the range of 5000 to 15000 nM.

For the molecule `CC(C)c1nc(N2CCN(C(=O)c3c[nH]c4ccccc34)CC2)c(C#N)cc1-c1ccccc1` [Compound 125, 2-(4-(1H-indole-3-carbonyl)piperazin-1-yl)-6-isopropyl-5-phenylnicotinonitrile], the IC50 was 5000 to 15000 nM.

As for `COCCC(=O)N1CCN(c2nc(C3CC3)c(-c3ccc(OC)nc3)cc2C#N)C[C@H]1C` [Compound 252, (R)-2-cyclopropyl-6′-methoxy-6-(4-(3-methoxypropanoyl)-3-methylpiperazin-1-yl)-3,3′-bipyridine-5-carbonitrile], the 50% inhibitory concentration (IC50) was at most 1000 nM.

Still in this experiment, the particulars now being: enzyme assay of Example 12; read-out: IDH1R132H IC50.
With `COCCC(=O)N1CCN(c2nc(C3CC3)c(-c3ccc(C(=O)N(C)OC)cc3)cc2C#N)C[C@H]1C` [Compound 656, (R)-4-(5-cyano-2-cyclopropyl-6-(4-(3-methoxypropanoyl)-3-methylpiperazin-1-yl)pyridin-3-yl)-N-methoxy-N-methylbenzamide], the IC50 was 500 to 1000 nM.

`C=Cc1cc(-c2c(C3CC3)nc(N3CCN(C(=O)OC(C)(C)C)[C@H](C4CC4)C3)c(C#N)c2C)cnn1` [Compound 772, (R)-tert-butyl 4-(3-cyano-6-cyclopropyl-4-methyl-5-(6-vinylpyridazin-4-yl)pyridin-2-yl)-2-cyclopropylpiperazine-1-carboxylate]: the IC50 was in the range of 500 to 1000 nM.

Consider `COCCC(=O)N1CCN(c2nc(C3CC3)c(-c3ccnn3C)c(C)c2C#N)C[C@H]1C` [Compound 349, (R)-6-cyclopropyl-2-[4-(3-methoxy-propionyl)-3-methyl-piperazin-1-yl]-4-methyl-5-(2-methyl-2H-pyrazol-3-yl)-nicotinonitrile], for which the half-maximal inhibitory concentration (IC50) lay within 500 to 1000 nM.

For `COCCC(=O)N1CCN(c2nc(C3CC3)c(-c3ccc(F)c4ccccc34)cc2C#N)C[C@H]1C` [Compound 290, (R)-6-cyclopropyl-5-(4-fluoronaphthalen-1-yl)-2-(4-(3-methoxypropanoyl)-3-methylpiperazin-1-yl)nicotinonitrile], the half-maximal inhibitory concentration (IC50) was below 500 nM.

For the molecule `N#Cc1cc(-c2cccc3cnccc23)c(C2CC2)nc1N1CCN(C(=O)CC(F)(F)F)C(C(F)(F)F)C1` (centres unmarked) [Compound 399, 6-cyclopropyl-5-(isoquinolin-5-yl)-2-(3-(trifluoromethyl)-4-(3,3,3-trifluoropropanoyl)piperazin-1-yl)nicotinonitrile], the IC50 lay within 500 to 1000 nM.

On to `C=CS(=O)(=O)N(c1cccc(-c2cc(C#N)c(N3CCN(C(=O)CCOC)[C@H](C)C3)nc2C2CC2)c1)S(=O)(=O)C=C` [Compound 440, (R)—N-(3-(5-cyano-2-cyclopropyl-6-(4-(3-methoxypropanoyl)-3-methylpiperazin-1-yl)pyridin-3-yl)phenyl)-N-(vinylsulfonyl)ethenesulfonamide], for which the IC50 is below 500 nM.

Regarding `N#Cc1cc(Cc2ccnc(Cl)c2)c(C2CC2)nc1N1CCN(C(=O)C2CC2)[C@H](C2CC2)C1` [Compound 685, (R)-5-((2-chloropyridin-4-yl)methyl)-2-(4-(cyclopropanecarbonyl)-3-cyclopropylpiperazin-1-yl)-6-cyclopropylnicotinonitrile], the IC50 is 1000 to 10000 nM.

`COCCC(=O)N1CCN(c2nc(C3CC3)c(-c3cccnc3F)c(C)c2C#N)C[C@H]1C` [Compound 369, (R)-2-cyclopropyl-2′-fluoro-6-[4-(3-methoxy-propionyl)-3-methyl-piperazin-1-yl]-4-methyl-[3,3′]bipyridinyl-5-carbonitrile]: the IC50 fell in the range of 500 to 1000 nM.

Turning to `C=Cc1cc(-c2cc(C#N)c(N3CCN(C(=O)CN4CCCC4=O)[C@H](C4CC4)C3)nc2C2CC2)ccn1` [Compound 814, (R)-2-cyclopropyl-6-(3-cyclopropyl-4-(2-(2-oxopyrrolidin-1-yl)acetyl)piperazin-1-yl)-2′-vinyl-3,4′-bipyridine-5-carbonitrile], the IC50 was 500 to 1000 nM.

On to `C=Cc1cc(-c2c(C3CC3)nc(N3CCN(C(=O)CCC4CCC4)[C@H](C4CC4)C3)c(C#N)c2C)ccn1` [Compound 826, (R)-6-(4-(3-cyclobutylpropanoyl)-3-cyclopropylpiperazin-1-yl)-2-cyclopropyl-4-methyl-2′-vinyl-3,4′-bipyridine-5-carbonitrile], for which the IC50 is below 500 nM.

Consider `CCO[C@H]1C[C@@H]1C(=O)N1CCN(c2nc(C3CC3)c(-c3ccc(F)cc3)cc2C#N)C[C@H]1C1CC1` [Compound 548, 6-cyclopropyl-2-((R)-3-cyclopropyl-4-((1S,2S)-2-ethoxycyclopropanecarbonyl)piperazin-1-yl)-5-(4-fluorophenyl)nicotinonitrile], for which the 50% inhibitory concentration (IC50) fell in the range of 500 to 1000 nM.

Take `C[C@@H]1CN(c2nc(C3CC3)c(-c3cccc4cnccc34)cc2C#N)CCN1C(=O)CCO` [Compound 402, (R)-6-cyclopropyl-2-(4-(3-hydroxypropanoyl)-3-methylpiperazin-1-yl)-5-(isoquinolin-5-yl)nicotinonitrile]: the IC50 is below 500 nM.

Consider `C[C@@H]1CN(c2nc(C3CC3)c(-c3cccc4c3CN(C)C4=O)cc2C#N)CCN1C(=O)C1CC1` [Compound 461, (R)-2-(4-(cyclopropanecarbonyl)-3-methylpiperazin-1-yl)-6-cyclopropyl-5-(2-methyl-1-oxoisoindolin-4-yl)nicotinonitrile], for which the 50% inhibitory concentration (IC50) was in the range of 500 to 1000 nM.
